# Test results as given in paper PMC7655067, “Crystal structure-guided design of berberine-based novel chitinase inhibitors” (Journal of Enzyme Inhibition and Medicinal Chemistry, 2020).
# Where a name gives a salt, the structure may show the parent alone. Read-outs that look alike come from different tables or passages of the source.
# Legend:
# hAMCase [1] = target: T1, hAMCase (Homo sapiens, UniProt Q9BZP6); test: Inhibitory activity assay with MU-(GlcNAc)2, Ki by Dixon plots; type: biochemical; conditions: pH 5.2
# T1 construct: including the catalytic domains of OfChtI from O. furnacalis, human HsCht and human hAMCase; made in house; host or cells: Pichia pastoris GS115
# Experimental: (§1) ChiB from S. marcescens was expressed in Escherichia coli BL21 (DE3). The other GH18 chitinases including the catalytic domains of OfChtI from O. furnacalis, human HsCht and human hAMCase were expressed in P. pastoris GS115. All the proteins were purified by immobilised metal affinity chromatography (IMAC) as described previously. The purities of the target proteins were analysed by SDS-PAGE followed by Coomassie Brilliant Blue R-250 staining.
# (§2) The activity of GH18 chitinases were determined using MU-(GlcNAc)2 as a substrate. The reaction mixtures used for determining the inhibitor activity of compounds consisted of 100 μL of 20 nM enzyme, 4 μM MU-(GlcNAc)2, 1 or 10 μM inhibitors and 2% DMSO in the buffer (20 mM sodium phosphate, pH 6.0, for SmChiB, OfChtI and HsCht; 20 mM sodium citrate, pH 5.2, for hAMCase). The reaction in the absence of compounds was used as a positive control. After incubating at 30 °C for 25 min, an equal volume of 0.5 M sodium carbonate was added to the reaction mixtures to terminate the reaction, and the fluorescence produced by the released MU was quantified using a Varioskan Flash microplate reader (Thermo Fisher Scientific, Waltham, MA), with excitation and emission wavelengths of 360 and 450 nm, respectively. Experiments were performed in triplicate. […] The Ki values and types of inhibition were determined by linear fitting of the data in Dixon plots.
# OfChtI [2] = target: T2, OfChtI (Ostrinia furnacalis, UniProt Q2V6H4); test: as above; type: biochemical; conditions: for Ki: pH 6.0, Dixon plots
# Experimental: as §1, §2
# HsCht [3] = target: T3, HsCht (Homo sapiens, UniProt Q13231); test: as above; type: biochemical; conditions: pH 6.0
# T3 construct: including the catalytic domains of OfChtI from O. furnacalis, human HsCht and human hAMCase; made in house; host or cells: Pichia pastoris GS115
# Experimental: as §1, §2
# SmChiB [4] = target: T4, SmChiB (Serratia marcescens, UniProt P11797); test: biochemical; type: biochemical
# T4 construct: made in house; host or cells: Escherichia coli BL21 (DE3)
# T4 sequence (P11797 42-499): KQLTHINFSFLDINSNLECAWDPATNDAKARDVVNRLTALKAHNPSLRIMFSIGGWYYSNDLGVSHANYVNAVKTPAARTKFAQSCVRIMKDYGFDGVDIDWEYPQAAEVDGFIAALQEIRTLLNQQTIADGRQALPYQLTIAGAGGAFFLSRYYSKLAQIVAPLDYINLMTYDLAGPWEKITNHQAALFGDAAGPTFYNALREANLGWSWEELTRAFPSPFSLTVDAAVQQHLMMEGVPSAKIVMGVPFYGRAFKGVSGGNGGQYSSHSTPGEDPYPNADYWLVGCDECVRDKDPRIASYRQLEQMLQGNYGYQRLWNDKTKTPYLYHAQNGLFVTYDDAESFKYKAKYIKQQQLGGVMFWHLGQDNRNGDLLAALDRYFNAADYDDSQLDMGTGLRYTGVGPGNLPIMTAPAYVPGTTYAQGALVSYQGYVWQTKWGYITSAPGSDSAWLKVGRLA
# Experimental: as §1, §2
# SmChiB [5] = target: T4, SmChiB; test: Tryptophan fluorescence quenching, Kd by modified Stern-Volmer equation; type: binding
# Experimental: (§3) Tryptophan fluorescence (295 nm excitation) was measured at 25 °C from 300 to 400 nm with a Varioskan Flash microplate reader using excitation and emission band passes of 5 nm. Fluorescence quenching experiments were performed in a 200 μL mixture containing 1 μM protein in the buffer (20 mM sodium phosphate, pH 6.0, for SmChiB, OfChtI and HsCht; 20 mM sodium citrate, pH 5.2, for hAMCase), and by the successive addition of aliquots of compounds stock solution. Since the crystal structure confirmed that berberine binding to SmChiB in a 1:1 ratio, the dissociation constant Kd were then determined using the modified Stern-Volmer equation[35]^,[36]. […]
# OfChtI [6] = target: T2, OfChtI; test: as above; type: binding
# Experimental: as §3
# hAMCase [7] = target: T1, hAMCase; test: as above; type: binding; conditions: pH 5.2
# Experimental: (§4) Fluorescence quenching experiments were performed in a 200 μL mixture containing 1 μM protein in the buffer (20 mM sodium phosphate, pH 6.0, for SmChiB, OfChtI and HsCht; 20 mM sodium citrate, pH 5.2, for hAMCase), and by the successive addition of aliquots of compounds stock solution.
# HsCht [8] = target: T3, HsCht; test: as above; type: binding; conditions: pH 6.0
# Experimental: as §4
# HsCht [9] = target: T3, HsCht; set-up: method as in PMID 30135205; conditions: cited from earlier work
# OfChtI [10] = target: T2, OfChtI; set-up: method as in PMID 30135205; conditions: cited from earlier work
# hAMCase [11] = target: T1, hAMCase; set-up: method as in PMID 30135205; conditions: cited from earlier work
# [12] = SmChiB, pH 6.0, Dixon plots, read-out: Ki
# [13] = SmChiB, tryptophan fluorescence quenching, pH 6.0, read-out: Kd
# T2 sequence (Q2V6H4 entry or part of it): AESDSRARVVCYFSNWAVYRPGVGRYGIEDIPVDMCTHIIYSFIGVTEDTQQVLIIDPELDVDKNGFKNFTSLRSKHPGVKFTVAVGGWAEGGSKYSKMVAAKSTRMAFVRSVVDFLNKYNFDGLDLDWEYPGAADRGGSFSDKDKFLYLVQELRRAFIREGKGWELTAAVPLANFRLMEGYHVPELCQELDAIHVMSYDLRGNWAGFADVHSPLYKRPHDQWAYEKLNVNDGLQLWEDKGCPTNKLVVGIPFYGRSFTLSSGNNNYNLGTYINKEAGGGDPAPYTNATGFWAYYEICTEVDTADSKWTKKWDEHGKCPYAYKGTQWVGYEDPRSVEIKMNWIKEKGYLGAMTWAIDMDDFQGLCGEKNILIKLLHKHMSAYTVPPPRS
# T3 sequence (Q13231 22-388 limits assumed): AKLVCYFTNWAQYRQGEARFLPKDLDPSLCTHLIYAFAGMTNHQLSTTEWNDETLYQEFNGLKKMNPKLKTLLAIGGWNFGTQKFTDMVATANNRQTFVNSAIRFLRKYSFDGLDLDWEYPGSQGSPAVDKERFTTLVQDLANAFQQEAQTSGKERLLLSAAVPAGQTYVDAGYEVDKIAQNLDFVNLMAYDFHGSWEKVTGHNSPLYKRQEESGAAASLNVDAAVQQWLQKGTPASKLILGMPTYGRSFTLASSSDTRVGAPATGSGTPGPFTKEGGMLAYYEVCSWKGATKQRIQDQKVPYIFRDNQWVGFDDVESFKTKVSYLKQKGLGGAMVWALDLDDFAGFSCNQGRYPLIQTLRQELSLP
# T1 sequence (Q9BZP6 22-390 limits assumed): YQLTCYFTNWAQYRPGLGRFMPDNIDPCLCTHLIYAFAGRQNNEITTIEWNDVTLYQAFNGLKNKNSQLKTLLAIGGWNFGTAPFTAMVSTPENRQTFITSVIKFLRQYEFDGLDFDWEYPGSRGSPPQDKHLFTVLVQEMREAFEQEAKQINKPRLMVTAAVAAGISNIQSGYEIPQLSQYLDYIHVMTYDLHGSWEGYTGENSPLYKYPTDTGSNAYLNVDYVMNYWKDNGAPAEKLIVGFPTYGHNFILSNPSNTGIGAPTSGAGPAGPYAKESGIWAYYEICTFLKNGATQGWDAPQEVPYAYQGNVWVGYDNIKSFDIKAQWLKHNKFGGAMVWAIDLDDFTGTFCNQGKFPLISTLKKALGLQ
smiles,measurement,setting,value
COC(=O)CCC(=O)Oc1c(OC)ccc2cc3[n+](cc12)CCc1cc2c(cc1-3)OCO2 (as salt: chloride) [4a],melting point,,192 °C (dec.)
COC(=O)CCC(=O)Oc1c(OC)ccc2cc3[n+](cc12)CCc1cc2c(cc1-3)OCO2 [4a],Ki,hAMCase [1],7.43 µM
same,Ki,OfChtI [2],6.43 µM
same,Ki,HsCht [3],8.23 µM
same,Ki,SmChiB [4]; [12],0.68 µM
same,Kd,SmChiB [5]; [13],1.12 µM
COc1ccc2cc3[n+](cc2c1OC(=O)c1ccccc1)CCc1cc2c(cc1-3)OCO2 [4b],Ki,hAMCase [1],4.62 µM
same,Ki,OfChtI [2],7.28 µM
same,Ki,HsCht [3],11.4 µM
same,Ki,SmChiB [4]; [12],2.36 µM
same,Kd,SmChiB [5]; [13],2.99 µM
COc1ccc2cc3[n+](cc2c1OC(=O)c1ccc(F)nc1)CCc1cc2c(cc1-3)OCO2 [4c],inhibitory activity increase compared to berberine,OfChtI [2]; from Ki values,7.5 fold
same,Ki,OfChtI [2],3.03 µM
same,Ki,SmChiB [4]; [12],0.15 µM
same,Kd,"OfChtI [6]; OfChtI, tryptophan fluorescence quenching, pH 6.0, read-out: Kd",2.58 µM
same,Kd,SmChiB [5]; [13],0.19 µM
"COc1ccc2cc3[n+](cc2c1OC)CCc1cc2c(cc1-3)OCO2 [Berberine, berberine]",Kd,hAMCase [7],58 µM
same,Kd,HsCht [8],21.9 µM
same,Ki,HsCht [9],19 µM
same,type of inhibition,HsCht [9],competitive inhibitor
same,Ki,OfChtI [10],23 µM
same,type of inhibition,OfChtI [10],competitive inhibitor
same,Ki,SmChiB [4],11.8 µM
same,type of inhibition,"SmChiB [4]; SmChiB, Dixon plots",competitive inhibitor
same,Kd,OfChtI [6],20.6 µM
same,Kd,SmChiB [5],12 µM
same,Ki,hAMCase [11],65 µM
same,type of inhibition,hAMCase [11],competitive inhibitor
